# Test results published in article PMC10700596 (Nature Communications, 2023).
# Where “and” joins values, the source holds several entries; their conditions need not be identical. Equal entries are not always repeated. Entries after “also recorded” stand apart in the source; their conditions may differ. Where two headings read alike, the source gives them in different places.
# Experiments:
# TGFBR1 = TGFBR1 (Homo sapiens, UniProt P36897); assay: biochemical; type: binding; details: 10000 nM; read-out: Percent Control
# COX-2 = molecular target: T1, COX-2 (Homo sapiens, UniProt P35354); assay: COX-2 inhibition (Eurofins item 4186); type: biochemical
# T1 construct: purchased Eurofins item 4186
# Description: (§1) . […] This panel includes several adverse drug reaction receptors such as the serotonin receptor 5HT2b, M1 and M2 muscarinic receptors and adrenergic receptors. […]. page 7:
# (§2) Supplementary Figure 7: Non-GPCR off-target screening for 74. a)-e) Dose-response curves of 74 at […]
# (§3) proliferator-activated receptor gamma (PPARγ, Eurofins item G124). Data in a)-e) and g)-i) represent two technical replicates. Source data are provided as a Source Data file.
# (§4) (1 picture or pasted object on this page, not shown here)
# TIE2 = TIE2 (Homo sapiens, UniProt Q02763); assay: biochemical; type: binding; details: 10000 nM; read-out: Percent Control
# EP3R = EP3R (Homo sapiens, UniProt P43115); assay: Radioligand (3H-PGE2) displacement assay at EP3R; type: binding
# PPARγ = molecular target: T2, PPARγ (Homo sapiens, UniProt P37231); assay: PPARγ agonist/antagonist assay (Eurofins item G124); type: biochemical
# T2 construct: purchased Eurofins item G124
# Description: as §1, §2, §3, §4
# [1] = molecular target: ABL1(E255K)-phosphorylated (Homo sapiens, UniProt P00519, E255K); assay: biochemical; type: binding; details: 10000 nM; read-out: Percent Control
# Description: as §1, §2, §3, §4
# PRKCE = PRKCE (Homo sapiens, UniProt Q02156); assay: biochemical; type: binding; details: 10000 nM; read-out: Percent Control
# Description: as §1, §2, §3, §4
# AKT2 = AKT2 (Homo sapiens, UniProt P31751); assay: biochemical; type: binding; details: 10000 nM; read-out: Percent Control
# Description: as §1, §2, §3, §4
# MET = MET (Homo sapiens, UniProt P08581); assay: biochemical; type: binding; details: 10000 nM; read-out: Percent Control
# Description: as §1, §2, §3, §4
# JNK1 = JNK1 (Homo sapiens, UniProt P45983); assay: biochemical; type: binding; details: 10000 nM; read-out: Percent Control
# Description: as §1, §2, §3, §4
# EGFR(L858R) = EGFR(L858R) (Homo sapiens, UniProt P00533, L858R); assay: biochemical; type: binding; details: 10000 nM; read-out: Percent Control
# Description: as §1, §2, §3, §4
# EGFR = EGFR (Homo sapiens, UniProt P00533); assay: biochemical; type: binding; details: 10000 nM; read-out: Percent Control
# Description: as §1, §2, §3, §4
# ZAP70 = ZAP70 (Homo sapiens, UniProt P43403); assay: biochemical; type: binding; details: 10000 nM; read-out: Percent Control
# Description: as §1, §2, §3, §4
# GSK3B = GSK3B (Homo sapiens, UniProt P49841); assay: biochemical; type: binding; details: 10000 nM; read-out: Percent Control
# Description: as §1, §2, §3, §4
# ROCK2 = ROCK2 (Homo sapiens, UniProt O75116); assay: biochemical; type: binding; details: 10000 nM; read-out: Percent Control
# Description: as §1, §2, §3, §4
# FAK = FAK (Homo sapiens, UniProt Q05397); assay: biochemical; type: binding; details: 10000 nM; read-out: Percent Control
# Description: as §1, §2, §3, §4
# SRPK3 = SRPK3 (Homo sapiens, UniProt Q9UPE1); assay: biochemical; type: binding; details: 10000 nM; read-out: Percent Control
# Description: as §1, §2, §3, §4
# CHEK1 = CHEK1 (Homo sapiens, UniProt O14757); assay: biochemical; type: binding; details: 10000 nM; read-out: Percent Control
# Description: as §1, §2, §3, §4
# ERK1 = ERK1 (Homo sapiens, UniProt P27361); assay: biochemical; type: binding; details: 10000 nM; read-out: Percent Control
# Description: as §1, §2, §3, §4
# DYRK1B = DYRK1B (Homo sapiens, UniProt Q9Y463); assay: biochemical; type: binding; details: 10000 nM; read-out: Percent Control
# Description: as §1, §2, §3, §4
# INSR = INSR (Homo sapiens, UniProt P06213); assay: biochemical; type: binding; details: 10000 nM; read-out: Percent Control
# Description: as §1, §2, §3, §4
# CDK2 = CDK2 (Homo sapiens, UniProt P24941); assay: biochemical; type: binding; details: 10000 nM; read-out: Percent Control
# Description: as §1, §2, §3, §4
# BRAF = BRAF (Homo sapiens, UniProt P15056); assay: biochemical; type: binding; details: 10000 nM; read-out: Percent Control
# Description: as §1, §2, §3, §4
# ADCK3 = ADCK3 (Homo sapiens, UniProt Q8NI60); assay: biochemical; type: binding; details: 10000 nM; read-out: Percent Control
# Description: as §1, §2, §3, §4
# p38-alpha = p38-alpha (Homo sapiens, UniProt Q16539); assay: biochemical; type: binding; details: 10000 nM; read-out: Percent Control
# Description: as §1, §2, §3, §4
# PIK3CA = PIK3CA (Homo sapiens, UniProt P42336); assay: biochemical; type: binding; details: 10000 nM; read-out: Percent Control
# Description: as §1, §2, §3, §4
# PIK3CG = PIK3CG (Homo sapiens, UniProt P48736); assay: biochemical; type: binding; details: 10000 nM; read-out: Percent Control
# Description: as §1, §2, §3, §4
# AXL = AXL (Homo sapiens, UniProt P30530); assay: biochemical; type: binding; details: 10000 nM; read-out: Percent Control
# ABL1-phosphorylated = ABL1-phosphorylated (Homo sapiens, UniProt P00519); assay: biochemical; type: binding; details: 10000 nM; read-out: Percent Control
# mice = type: in vivo; details: for CFA-induced allodynia, mechanical threshold (von Frey): individual animals
# AURKB = AURKB (Homo sapiens, UniProt Q96GD4); assay: biochemical; type: binding; details: 10000 nM; read-out: Percent Control
# Description: as §4
# T1 sequence (P35354 18-604): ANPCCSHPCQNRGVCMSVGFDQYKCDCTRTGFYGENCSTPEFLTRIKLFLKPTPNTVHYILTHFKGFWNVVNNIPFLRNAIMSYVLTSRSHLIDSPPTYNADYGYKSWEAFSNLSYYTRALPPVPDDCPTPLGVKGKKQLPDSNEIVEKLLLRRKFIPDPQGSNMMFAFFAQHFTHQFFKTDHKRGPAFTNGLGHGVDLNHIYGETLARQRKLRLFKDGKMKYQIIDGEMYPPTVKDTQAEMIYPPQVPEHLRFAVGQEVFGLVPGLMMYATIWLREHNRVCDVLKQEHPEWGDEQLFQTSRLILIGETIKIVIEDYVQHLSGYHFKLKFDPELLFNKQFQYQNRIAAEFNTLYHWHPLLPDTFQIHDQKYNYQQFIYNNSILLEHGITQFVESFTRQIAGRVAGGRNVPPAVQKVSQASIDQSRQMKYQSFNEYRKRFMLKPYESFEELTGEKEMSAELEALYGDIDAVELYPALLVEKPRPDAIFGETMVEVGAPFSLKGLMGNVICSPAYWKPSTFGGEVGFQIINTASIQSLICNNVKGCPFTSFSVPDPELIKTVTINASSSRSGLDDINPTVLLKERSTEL
# T2 sequence (P37231 whole entry, species assumed): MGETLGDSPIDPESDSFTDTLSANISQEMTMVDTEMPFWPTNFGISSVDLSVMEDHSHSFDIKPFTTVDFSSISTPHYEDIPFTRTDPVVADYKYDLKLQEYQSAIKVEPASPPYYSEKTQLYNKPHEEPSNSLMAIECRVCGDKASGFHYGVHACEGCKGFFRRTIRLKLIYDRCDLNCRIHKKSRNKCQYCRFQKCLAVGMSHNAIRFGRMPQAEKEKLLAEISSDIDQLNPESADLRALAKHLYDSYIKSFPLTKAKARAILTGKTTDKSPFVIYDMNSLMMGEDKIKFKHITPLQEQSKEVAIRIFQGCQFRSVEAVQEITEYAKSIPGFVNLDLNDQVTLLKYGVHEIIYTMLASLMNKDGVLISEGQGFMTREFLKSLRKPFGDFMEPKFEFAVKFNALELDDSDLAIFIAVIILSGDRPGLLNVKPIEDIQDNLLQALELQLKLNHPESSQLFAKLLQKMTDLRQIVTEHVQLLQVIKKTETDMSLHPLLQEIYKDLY
# Sequence of AURKB (Q96GD4 whole entry): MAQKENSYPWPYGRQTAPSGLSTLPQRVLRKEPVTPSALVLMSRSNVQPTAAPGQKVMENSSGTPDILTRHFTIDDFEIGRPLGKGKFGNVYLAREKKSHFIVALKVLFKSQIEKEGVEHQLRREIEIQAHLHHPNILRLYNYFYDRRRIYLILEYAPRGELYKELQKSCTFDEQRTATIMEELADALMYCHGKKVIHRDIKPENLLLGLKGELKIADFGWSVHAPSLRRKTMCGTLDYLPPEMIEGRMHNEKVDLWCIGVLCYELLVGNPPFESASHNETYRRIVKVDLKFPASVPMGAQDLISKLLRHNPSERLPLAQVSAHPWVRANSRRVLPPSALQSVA
# Sequence of EGFR(L858R) (P00533 25-1210 L858R): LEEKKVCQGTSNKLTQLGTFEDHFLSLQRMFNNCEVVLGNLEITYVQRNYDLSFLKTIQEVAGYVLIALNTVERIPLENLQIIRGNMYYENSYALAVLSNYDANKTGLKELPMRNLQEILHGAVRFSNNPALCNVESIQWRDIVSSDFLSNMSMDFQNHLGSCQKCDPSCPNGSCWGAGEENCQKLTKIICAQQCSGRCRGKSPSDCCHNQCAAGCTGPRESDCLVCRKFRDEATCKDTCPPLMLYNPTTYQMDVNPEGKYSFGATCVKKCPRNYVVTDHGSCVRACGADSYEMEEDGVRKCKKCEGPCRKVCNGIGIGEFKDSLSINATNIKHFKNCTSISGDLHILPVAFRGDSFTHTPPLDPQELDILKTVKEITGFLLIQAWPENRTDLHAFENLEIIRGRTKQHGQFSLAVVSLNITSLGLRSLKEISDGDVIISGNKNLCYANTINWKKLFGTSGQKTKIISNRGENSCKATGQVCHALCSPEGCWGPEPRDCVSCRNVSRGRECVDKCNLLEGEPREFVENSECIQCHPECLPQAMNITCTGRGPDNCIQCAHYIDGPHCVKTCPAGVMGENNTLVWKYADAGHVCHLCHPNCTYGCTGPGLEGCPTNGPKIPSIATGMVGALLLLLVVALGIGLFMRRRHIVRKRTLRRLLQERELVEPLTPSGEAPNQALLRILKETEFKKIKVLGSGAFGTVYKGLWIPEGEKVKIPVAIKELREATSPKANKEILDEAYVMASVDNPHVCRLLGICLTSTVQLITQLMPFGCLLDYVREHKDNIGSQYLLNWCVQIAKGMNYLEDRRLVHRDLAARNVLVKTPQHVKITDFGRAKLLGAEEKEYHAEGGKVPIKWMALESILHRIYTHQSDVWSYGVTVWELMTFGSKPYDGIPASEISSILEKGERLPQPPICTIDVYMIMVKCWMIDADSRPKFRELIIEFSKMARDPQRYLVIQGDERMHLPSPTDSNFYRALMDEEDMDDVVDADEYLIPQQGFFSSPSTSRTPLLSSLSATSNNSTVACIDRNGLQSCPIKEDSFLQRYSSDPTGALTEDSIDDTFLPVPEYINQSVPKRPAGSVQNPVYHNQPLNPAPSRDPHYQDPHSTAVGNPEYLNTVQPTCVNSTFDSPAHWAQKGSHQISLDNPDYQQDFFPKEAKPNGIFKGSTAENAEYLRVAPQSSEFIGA
# Sequence of p38-alpha (Q16539 whole entry): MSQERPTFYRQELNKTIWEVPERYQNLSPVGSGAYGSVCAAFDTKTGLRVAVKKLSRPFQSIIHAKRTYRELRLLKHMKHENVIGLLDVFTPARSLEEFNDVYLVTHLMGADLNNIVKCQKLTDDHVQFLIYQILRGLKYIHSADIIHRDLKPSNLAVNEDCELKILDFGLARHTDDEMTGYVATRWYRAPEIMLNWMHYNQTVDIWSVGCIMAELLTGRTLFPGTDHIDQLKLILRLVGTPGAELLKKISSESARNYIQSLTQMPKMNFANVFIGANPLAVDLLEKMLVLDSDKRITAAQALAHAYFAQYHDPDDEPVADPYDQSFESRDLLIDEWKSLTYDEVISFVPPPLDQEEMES
# Sequence of PRKCE (Q02156 whole entry): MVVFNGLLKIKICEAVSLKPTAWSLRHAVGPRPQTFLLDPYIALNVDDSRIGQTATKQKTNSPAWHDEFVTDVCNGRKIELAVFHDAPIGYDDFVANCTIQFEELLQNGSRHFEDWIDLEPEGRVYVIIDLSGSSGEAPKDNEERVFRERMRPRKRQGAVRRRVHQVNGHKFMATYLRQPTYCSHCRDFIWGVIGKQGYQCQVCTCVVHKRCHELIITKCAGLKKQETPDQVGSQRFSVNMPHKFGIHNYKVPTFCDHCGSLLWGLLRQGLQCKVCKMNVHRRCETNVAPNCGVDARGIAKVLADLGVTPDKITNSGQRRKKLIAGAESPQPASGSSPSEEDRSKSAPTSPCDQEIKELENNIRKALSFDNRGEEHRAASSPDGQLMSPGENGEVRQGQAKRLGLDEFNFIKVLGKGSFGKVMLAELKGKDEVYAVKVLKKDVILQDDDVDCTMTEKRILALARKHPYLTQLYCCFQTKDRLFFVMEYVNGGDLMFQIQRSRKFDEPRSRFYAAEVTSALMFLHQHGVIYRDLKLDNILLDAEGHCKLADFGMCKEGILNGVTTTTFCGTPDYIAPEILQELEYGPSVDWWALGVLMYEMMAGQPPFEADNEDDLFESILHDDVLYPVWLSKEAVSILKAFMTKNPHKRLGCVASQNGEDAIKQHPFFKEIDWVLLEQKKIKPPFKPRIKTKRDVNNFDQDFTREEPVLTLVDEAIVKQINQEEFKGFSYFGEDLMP
# Sequence of JNK1 (P45983 whole entry): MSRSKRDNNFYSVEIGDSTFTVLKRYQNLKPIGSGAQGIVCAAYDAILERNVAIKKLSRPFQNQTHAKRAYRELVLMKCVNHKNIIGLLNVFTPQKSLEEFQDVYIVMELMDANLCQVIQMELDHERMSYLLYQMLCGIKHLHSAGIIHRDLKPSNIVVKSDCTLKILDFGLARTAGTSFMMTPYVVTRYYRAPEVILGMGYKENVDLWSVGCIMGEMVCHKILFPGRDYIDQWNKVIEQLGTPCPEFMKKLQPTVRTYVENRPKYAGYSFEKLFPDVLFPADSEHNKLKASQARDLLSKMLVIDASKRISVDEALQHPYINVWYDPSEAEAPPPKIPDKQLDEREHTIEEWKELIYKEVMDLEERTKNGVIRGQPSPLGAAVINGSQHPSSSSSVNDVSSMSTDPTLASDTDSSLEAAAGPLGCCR
# Sequence of AKT2 (P31751 whole entry): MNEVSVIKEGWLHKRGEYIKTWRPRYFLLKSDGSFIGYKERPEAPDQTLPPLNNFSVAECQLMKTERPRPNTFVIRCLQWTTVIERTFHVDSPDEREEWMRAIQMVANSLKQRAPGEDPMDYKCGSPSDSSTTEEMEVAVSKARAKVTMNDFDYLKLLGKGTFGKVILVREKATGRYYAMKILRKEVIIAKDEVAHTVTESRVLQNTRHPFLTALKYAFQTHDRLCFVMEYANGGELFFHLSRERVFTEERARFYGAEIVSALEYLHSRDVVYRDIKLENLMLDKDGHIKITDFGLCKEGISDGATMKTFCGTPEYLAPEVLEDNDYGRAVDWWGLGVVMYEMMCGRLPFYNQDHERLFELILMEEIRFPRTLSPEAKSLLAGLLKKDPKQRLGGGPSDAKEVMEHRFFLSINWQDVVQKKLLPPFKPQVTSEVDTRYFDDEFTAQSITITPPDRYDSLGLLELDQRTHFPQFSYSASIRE
# Sequence of ERK1 (P27361 whole entry): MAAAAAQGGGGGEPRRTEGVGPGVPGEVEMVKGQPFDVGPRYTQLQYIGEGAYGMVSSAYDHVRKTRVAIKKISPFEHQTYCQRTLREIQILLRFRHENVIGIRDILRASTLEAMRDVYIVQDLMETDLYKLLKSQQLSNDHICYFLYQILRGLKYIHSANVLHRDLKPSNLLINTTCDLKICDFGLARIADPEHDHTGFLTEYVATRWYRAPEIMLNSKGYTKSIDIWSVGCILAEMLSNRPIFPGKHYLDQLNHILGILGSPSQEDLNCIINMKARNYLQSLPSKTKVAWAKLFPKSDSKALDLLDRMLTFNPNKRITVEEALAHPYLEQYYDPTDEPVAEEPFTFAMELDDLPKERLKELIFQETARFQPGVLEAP
smiles,measurement,setting,value
"O=C(O)C1CCC2(CC1)CC(Nc1ncnc3[nH]c4c(F)cccc4c13)C2 (centres unmarked) [Compound 74, OC(=O)C1CCC2(CC(C2)NC=3N=CN=C4NC=5C(F)=CC=CC5C34)CC1]",remaining activity at 10 µM,TGFBR1,54%
same,inhibitory / off-target activity at COX-2,COX-2; 3 µM,no off-target activity; also recorded: no inhibitory activity
same,%Inhibition of Control Values,"COX-2; COX-2, 3 µM, technical replicates",-20.9% and -2.6%
same,remaining activity at 10 µM,TIE2,81%
same,binding to EP3 receptor,EP3R,no binding
same,agonist or antagonist activity at PPARγ,PPARγ,no agonist or antagonist activity
same,inhibitory activity against PPARγ,PPARγ; 3 µM,no inhibitory activity
same,remaining activity at 10 µM,[1],57%
same,remaining activity at 10 µM,PRKCE,57%
same,remaining activity at 10 µM,AKT2,74%
same,remaining activity at 10 µM,MET,100%
same,remaining activity at 10 µM,JNK1,35%
same,remaining activity at 10 µM,EGFR(L858R),84%
same,remaining activity at 10 µM,EGFR,96%
same,remaining activity at 10 µM,ZAP70,75%
same,remaining activity at 10 µM,GSK3B,82%
same,remaining activity at 10 µM,ROCK2,59%
same,remaining activity at 10 µM,FAK,97%
same,remaining activity at 10 µM,SRPK3,67%
same,remaining activity at 10 µM,CHEK1,100%
same,remaining activity at 10 µM,ERK1,100%
same,remaining activity at 10 µM,DYRK1B,74%
same,remaining activity at 10 µM,INSR,90%
same,remaining activity at 10 µM,CDK2,96%
same,remaining activity at 10 µM,BRAF,86%
same,remaining activity at 10 µM,ADCK3,85%
same,remaining activity at 10 µM,p38-alpha,87%
same,remaining activity at 10 µM,PIK3CA,64%
same,remaining activity at 10 µM,PIK3CG,3.5%
same,remaining activity at 10 µM,AXL,47%
same,remaining activity at 10 µM,ABL1-phosphorylated,63%
same,"CFA-induced allodynia, mechanical threshold (von Frey)","mice; 10 mg/kg IP, day 3",31.5 and 39 and 36.3 and 64.2 and 20.2
same,"CFA-induced allodynia, mechanical threshold (von Frey)","mice; 30 mg/kg IP, day 4",35.4 and 28.1 and 62 and 31.3 and 22.9
same,effect on CFA-induced mechanical allodynia,mice; 10 and 30 mg/kg i.p.,significantly decreased; also recorded: reduced
same,remaining activity at 10 µM,AURKB,8.2%
